Test results: paper PMC12028158, “Synthesis and In Vitro Evaluation of the Anticancer Effect of Novel Phosphonium Vindoline Derivatives” (International Journal of Molecular Sciences, 2025)
Like-named read-outs stand apart in the source and are kept apart here.

How the values were obtained:
Type in all cases: cell-based
SR [1] = test: NCI60 five-dose screen; conditions: Homo sapiens
HOP-62 [2] = test: NCI60 five-dose screen; conditions: Homo sapiens
NCI-H23 = test: NCI60 five-dose screen; conditions: Homo sapiens
HT29 = test: NCI60 five-dose screen; conditions: Homo sapiens, HT-29
SW-620 = test: NCI60 five-dose screen; conditions: Homo sapiens
SF-295 [3] = test: NCI60 five-dose screen; conditions: Homo sapiens
SNB-75 = test: NCI60 five-dose screen; conditions: Homo sapiens
LOX IMVI = test: NCI60 five-dose screen; conditions: Homo sapiens
SK-MEL-2 = test: NCI60 five-dose screen; conditions: Homo sapiens
SK-MEL-5 = test: NCI60 five-dose screen; conditions: Homo sapiens
OVCAR-3 = test: NCI60 five-dose screen; conditions: Homo sapiens
786-0 = test: NCI60 five-dose screen; conditions: Homo sapiens
UO-31 [4] = test: NCI60 five-dose screen; conditions: Homo sapiens
PC-3 = test: NCI60 five-dose screen; conditions: Homo sapiens
DU-145 = test: NCI60 five-dose screen; conditions: Homo sapiens
MDA-MB231ATCC = test: NCI60 five-dose screen; conditions: Homo sapiens, MDA-MB-231
T-47D = test: NCI60 five-dose screen; conditions: Homo sapiens, T47D
MDA-MB-468 = test: NCI60 five-dose screen; conditions: Homo sapiens
HL-60(TB) = test: NCI60 one-dose screen; conditions: Homo sapiens
K-562 = test: NCI60 one-dose screen; conditions: Homo sapiens
MOLT-4 = test: NCI60 one-dose screen; conditions: Homo sapiens
SR [5] = test: NCI60 one-dose screen; conditions: Homo sapiens, read-out: Growth percent
A549/ATCC = test: NCI60 one-dose screen; conditions: Homo sapiens
HOP-62 [6] = test: NCI60 one-dose screen; conditions: Homo sapiens
NCI-H322M = test: NCI60 one-dose screen; conditions: Homo sapiens, read-out: Growth percent
HCT-116 = test: NCI60 one-dose screen; conditions: Homo sapiens
KM12 = test: NCI60 one-dose screen; conditions: Homo sapiens
SF-268 = test: NCI60 one-dose screen; conditions: Homo sapiens
SF-295 [7] = test: NCI60 one-dose screen; conditions: Homo sapiens
SNB-19 = test: NCI60 one-dose screen; conditions: Homo sapiens
M14 = test: NCI60 one-dose screen; conditions: Homo sapiens
MDA-MB-435 = test: NCI60 one-dose screen; conditions: Homo sapiens
SK-MEL-28 = test: NCI60 one-dose screen; conditions: Homo sapiens
A498 = test: NCI60 one-dose screen; conditions: Homo sapiens
ACHN = test: NCI60 one-dose screen; conditions: Homo sapiens, read-out: Growth percent
UO-31 [8] = test: NCI60 one-dose screen; conditions: Homo sapiens
HS 578T = test: NCI60 one-dose screen; conditions: Homo sapiens, read-out: Growth percent
[9] = tested on: 60 human tumor cell lines (NCI60); test: NCI60 five-dose screen, overall mean; conditions: 60 cell, mean over all 60 cell lines, read-out: Mean GI50

With CC[C@]12C=CCN3CC[C@@]4(c5ccc(OC)cc5N(C)[C@H]4[C@@](O)(C(=O)OC)[C@@H]1OC(=O)CCC[P+](c1ccccc1)(c1ccccc1)c1ccccc1OC)[C@@H]32 [9f] the GI50 (SR [1]) was 221 nM, the GI50 (HOP-62 [2]; HOP-62) was 2160 nM and the GI50 (NCI-H23; NCI-H23) was 413 nM. For the same compound, the GI50 (HT29) was 356 nM, the GI50 (SW-620; SW-620) was 637 nM and the GI50 (SF-295 [3]; SF-295) was 1830 nM. The GI50 (SNB-75; SNB-75) was 197 nM, the GI50 (LOX IMVI) was 429 nM and the GI50 (SK-MEL-2; SK-MEL-2) was 322 nM. It also gave a GI50 (SK-MEL-5; SK-MEL-5) of 777 nM, a GI50 (OVCAR-3; OVCAR-3) of 297 nM and a GI50 (786-0; 786-0) of 1980 nM. For the same compound, the GI50 (UO-31 [4]; UO-31) was 11000 nM, the GI50 (PC-3; PC-3) was 268 nM and the GI50 (DU-145; DU-145) was 418 nM. For the same compound, the GI50 (MDA-MB231ATCC) was 397 nM, the GI50 (T-47D) was 302 nM and the GI50 (MDA-MB-468; MDA-MB-468) was 129 nM. The activity at 10 µM (HL-60(TB); HL-60, read-out: Growth percent) was -5.95%, the activity at 10 µM (K-562; K562, read-out: Growth percent) was -43.4% and the activity at 10 µM (MOLT-4; MOLT-4, read-out: Growth percent) was 21.2%. It also gave an activity at 10 µM (SR [5]) of -7.49%, an activity at 10 µM (A549/ATCC; A549, read-out: Growth percent) of 20.1% and an activity at 10 µM (HOP-62 [6]; HOP-62, read-out: Growth percent) of -13.7%. For the same compound, the activity at 10 µM (NCI-H322M) was 25.9%, the activity at 10 µM (HCT-116; HCT-116, read-out: Growth percent) was -51% and the activity at 10 µM (KM12; KM12, read-out: Growth percent) was -93.4%. For the same compound, the activity at 10 µM (SF-268; SF-268, read-out: Growth percent) was -76.1%, the activity at 10 µM (SF-295 [7]; SF-295, read-out: Growth percent) was -42.3% and the activity at 10 µM (SNB-19; SNB-19, read-out: Growth percent) was -95.2%. For the same compound, the activity at 10 µM (M14; M14, read-out: Growth percent) was -82.9%, the activity at 10 µM (MDA-MB-435; MDA-MB-435, read-out: Growth percent) was -73.7% and the activity at 10 µM (SK-MEL-28; SK-MEL-28, read-out: Growth percent) was -63.3%. The activity at 10 µM (A498; A498, read-out: Growth percent) was -10.4%, the activity at 10 µM (ACHN) was 0.6% and the activity at 10 µM (UO-31 [8]; UO-31, read-out: Growth percent) was 44%. For the same compound, the activity at 10 µM (HS 578T; Hs-578T) was -47.4%.

Work on CC[C@]12C=CCN3CC[C@@]4(c5ccc(OC)cc5N(C)[C@H]4[C@@](O)(C(=O)OC)[C@@H]1OC(=O)CCC[P+](c1ccccc1)(c1ccccc1)c1ccccc1)[C@@H]32 [compound 3, reference compound] yielded a GI50 (SR [1]; Leukemia, five-dose, read-out: GI50) of 346 nM, a GI50 (HOP-62 [2]; HOP-62, Non-small Cell Lung Cancer, five-dose, read-out: GI50) of 1370 nM and a GI50 (NCI-H23; NCI-H23, Non-small Cell Lung Cancer, five-dose, read-out: GI50) of 971 nM. The GI50 (HT29; HT29, Colon Cancer, five-dose, read-out: GI50) was 266 nM, the GI50 (SW-620; SW-620, Colon Cancer, five-dose, read-out: GI50) was 1200 nM and the GI50 (SF-295 [3]; SF-295, CNS Cancer, five-dose, read-out: GI50) was 1450 nM. The GI50 (SNB-75; SNB-75, CNS Cancer, five-dose, read-out: GI50) was 750 nM, the GI50 (LOX IMVI; Melanoma, five-dose, read-out: GI50) was 858 nM and the GI50 (SK-MEL-2; SK-MEL-2, SK-MEL-2, Melanoma, five-dose, read-out: GI50) was 322 nM. It also gave a GI50 (SK-MEL-5; SK-MEL-5, Melanoma, five-dose, read-out: GI50) of 766 nM, a GI50 (OVCAR-3; OVCAR-3, Ovarian Cancer, five-dose, read-out: GI50) of 369 nM and a GI50 (786-0; 786-0, Renal Cancer, five-dose, read-out: GI50) of 2740 nM. For the same compound, the GI50 (UO-31 [4]; UO-31, Renal Cancer, five-dose, read-out: GI50) was 10800 nM, the GI50 (PC-3; PC-3, Prostate Cancer, five-dose, read-out: GI50) was 204 nM and the GI50 (DU-145; DU-145, Prostate Cancer, five-dose, read-out: GI50) was 1070 nM. It also gave a GI50 (MDA-MB231ATCC; MDA-MB231ATCC, Breast Cancer, five-dose, read-out: GI50) of 406 nM, a GI50 (T-47D; T-47D, Breast Cancer, five-dose, read-out: GI50) of 192 nM and a GI50 (MDA-MB-468; MDA-MB-468, MDA-MB-468, Breast Cancer, five-dose, read-out: GI50) of 126 nM. It also gave a GI50 [9] of 1980 nM, an activity at 10 µM (HL-60(TB); HL-60(TB), 10 μM, one-dose, read-out: Growth percent) of -53.1% and an activity at 10 µM (K-562; K562, K-562, 10 μM, one-dose, read-out: Growth percent) of 10.4%. For the same compound, the activity at 10 µM (MOLT-4; MOLT-4, 10 μM, one-dose, read-out: Growth percent) was 5.41%, the activity at 10 µM (SR [5]; 10 μM, one-dose) was 9.57% and the activity at 10 µM (A549/ATCC; A549/ATCC, 10 μM, one-dose, read-out: Growth percent) was 13.4%. The activity at 10 µM (HOP-62 [6]; HOP-62, 10 μM, one-dose, read-out: Growth percent) was 2.56%, the activity at 10 µM (NCI-H322M; 10 μM, one-dose) was 35.6% and the activity at 10 µM (HCT-116; HCT-116, 10 μM, one-dose, read-out: Growth percent) was 8.72%. For the same compound, the activity at 10 µM (KM12; KM12, 10 μM, one-dose, read-out: Growth percent) was -27.2%, the activity at 10 µM (SF-268; SF-268, 10 μM, one-dose, read-out: Growth percent) was 19.2% and the activity at 10 µM (SF-295 [7]; SF-295, 10 μM, one-dose, read-out: Growth percent) was 23.3%. It also gave an activity at 10 µM (SNB-19; SNB-19, 10 μM, one-dose, read-out: Growth percent) of 11%, an activity at 10 µM (M14; M14, 10 μM, one-dose, read-out: Growth percent) of 17.7% and an activity at 10 µM (MDA-MB-435; MDA-MB-435, 10 μM, one-dose, read-out: Growth percent) of -21.6%. For the same compound, the activity at 10 µM (SK-MEL-28; SK-MEL-28, 10 μM, one-dose, read-out: Growth percent) was 20.9%, the activity at 10 µM (A498; A498, 10 μM, one-dose, read-out: Growth percent) was 124% and the activity at 10 µM (ACHN; 10 μM, one-dose) was 89.9%. It also gave an activity at 10 µM (UO-31 [8]; UO-31, 10 μM, one-dose, read-out: Growth percent) of 80% and an activity at 10 µM (HS 578T; HS 578T, 10 μM, one-dose) of 25.5%.
